{"source": "patent US9187411B2", "about": "“Leukotriene B4 antagonist compound” (Eli Lilly and Company, priority 2012, dated 2015)", "key": {"[1]": {"test_system": "CaCl2-induced abdominal aortic aneurysm", "assay": "CaCl2-induced AAA animal efficacy model, mice", "format": "in vivo, 129SvEv mice", "conditions": "28 days, aortic lumenal perimeter", "source_text": "A targeted application of a calcium chloride solution to the mouse aorta induces vessel dilatation Chiou et al. J. Surg. Res. (2001), 99: 371-376; Lomgo et al. J. Clin. Invest. (2002), 110: 625-632. Two weeks after treatment, the vessel dilatation compared to the original vessel diameter becomes statistically significant, with up to 75% increase of aortic lumenal perimeter after 4 weeks. Calcium precipitates have been localized primarily within the elastic network of the media. Disruption of this structure by the calcium-elastic tissue complex weakens the vessel wall, contributing to aneurysm formation. This injury also serves as a proinflammatory stimulus, recruiting neutrophils, lymphocytes, monocytes, and mast cells.\nMice: 129SvEv males, 7 weeks of age, are acquired from Taconic Farms, Germantown, N.Y., USA.\nAneurysm Induction Model: All procedures are performed in accordance with Eli Lilly and Company Institutional Animal Care and Use guidelines. Upon their arrival, animals have a one week acclimation period during which they have ad libitum access to standard rodent chow (Purina #2014) and house water. Following the acclimation period, animals are anesthetized with isoflurane, and a laparotomy is performed for the CaCl2-stimulated induction of the abdominal aortic aneurysm (AAA). […] Interior cross sectional lumenal perimeter measurements (mm) are collected at that point to assess efficacy and statistically analyzed with JMP® 7 software (Cary, N.C.). Statistical Analysis: Measurements of lumenal perimeter are expressed as mean values±SE. […]\nThe efficacy signal window in the CaCl2-induced abdominal aortic aneurysm model is determined by the lumenal perimeter of the aorta in mice treated with saline-soaked gauze followed by 4-weeks dosing with vehicle that determines 100% efficacy (“Sham Vehicle”) and the lumenal perimeter of the aorta in mice treated with CaCl2-soaked gauze followed by 4-weeks dosing with vehicle (“Vehicle”) that determines 0% efficacy."}, "[2]": {"test_system": "LTB4-induced CD11b expression in neutrophils", "assay": "CD11b assay, mouse whole blood", "format": "cell-based", "conditions": "Neutrophil, 25 nM LTB4", "protocol": "EDTA anti-coagulated blood is collected from human donors or mice as before. For in vitro experiments, 8 or 10 point dose response curves of test compounds are assayed at final concentrations of 78 nM-10 μM or 20 nM-10 μM respectively. ½ serial dilutions of compound at 1000× of final assayed concentration are prepared in DMSO. Compound is then diluted to 10× in DPBS (DMSO concentration is now 1%). 10 μL of compound dilutions (at 10× in DPBS) or 1% DMSO in DPBS are added to wells of a 96 deep well plate. 90 μL whole blood is added and incubated 20 min at room temperature. 11 μL of 10×LTB4 (final concentration 25 nM for mouse or 10 nM human) is added and incubated at 37° C. for 30 min. The reaction is stopped by incubating the plate on ice for 5 min. The cells are stained with 10 μL anti-mouse or anti-human CD11b-PE (BD Biosciences diluted 1:20 for mouse and undiluted for human) and incubated on ice for 30 min in the dark (for mouse experiments, 10 μL anti-mouse LY6G-FITC antibody (BD Pharmingen) diluted 1:25 is added for the final 10 min) Red blood cells (RBCs) are lysed by adding 1.5 mL of 1×BD FACSlyse (BD Biosciences) and incubating for 10 min at room temperature in the dark. […] Data are analyzed with WinList software (Verity Software House) to determine mean and median fluorescent intensity values for CD11b-PE from neutrophil population."}}, "data": [{"smiles": "CCCc1c(NC(=O)CC(C)(C)C(=O)[O-])cccc1OCCCOc1cc(O)c(-c2ccc(F)cc2)cc1CC.[Na+]", "note": "[Example 2, Sodium 4-[[3-[3-[2-ethyl-4-(4-fluorophenyl)-5-hydroxy-phenoxy]propoxy]-2-propyl-phenyl]amino]-2,2-dimethyl-4-oxo-butanoate]", "values": [{"measurement": "% Reduced (±S.E.) of AAA", "setting": "[1]; 10 mg/kg b.i.d. oral gavage", "value": "41% ± 13"}, {"measurement": "% Reduced (±S.E.) of AAA", "setting": "[1]; 30 mg/kg b.i.d. oral gavage", "value": "48% ± 10"}, {"measurement": "% Reduced (±S.E.) of AAA", "setting": "[1]; 60 mg/kg b.i.d. oral gavage", "value": "58% ± 13"}, {"measurement": "IC50", "setting": "[2]", "value": 1.45, "unit": "µM"}]}]}
